Here are results for 13 compounds from patent publication US11117930B2, “Peptide inhibitors of transcription factor aggregation” (ADRX, INC., priority 2017, dated 2021).

Data set [1] deals with Nat1 (LTIITLE (SEQ ID NO: 225)) (Homo sapiens, UniProt P04637). The experiment in a line: Thioflavin T aggregation assay (Nat1). The format is biochemical. Particulars: ThT fluorescence, 50 μM Nat1, pH6.0, room temperature, 2 hours. On the procedure:
(§1) The peptides of the invention were tested in an in vitro Thiofiavin T aggregation assay [see WO2014/182961]. An increase in Thioflavin T fluorescence is detected over time due to the formation of increasing amounts of amyloid to which the dye can specifically bind. […] For the Nat1 Stock Solution, Nat (LTIITLE (SEQ ID NO: 225), >95% Pure, TFA salt) is dissolved at 8 mM in 25 mM NaOH solution and kept at −80° C. Prior to the assay, it is diluted to 1 mM in H2O. The 2× Reaction Buffer is prepared with 200 mM Sodium Phosphate, pH6.0, 500 mM Sodium Chloride and 200 μM Thioflavin T (ThT). 100 μL of 2× reaction buffer and 80 μL of H2O are added to each well in black, clear-bottomed 96-well plate. Inhibitor peptides are dissolved in H2O to appropriate concentrations to produce 6-points dose response curves. 10 μL of dissolved peptide or H2O (control) is added to each reaction well. 10 μL of 1 mM Nat1 peptide is added to each reaction well (a final concentration of 50 μM). ThT fluorescence is monitored at room temperature every minute for 2 hours with excitation and emission wavelengths of 440 and 485 nm, respectively. IC50 values are calculated using Graphpad Prism.

Data set [2] concerns the target p63 [RPILIIVTLE—SEQ ID NO: 226] (Homo sapiens, UniProt Q9H3D4). Kind of data set: Thioflavin T aggregation assay, p63 amyloidogenic region. The data set is classed as biochemical. Also noted: dose or concentration left out as unconfirmed. Particulars: inhibitors added in solution; FIG. 2(a). The source says:
(§2) FIGS. 1(a) and 1(b) show the aggregation of p63 and p73 amyloidogenic regions, respectively. The aggregation of the p63 and p73 sequences are monitored via Thioflavin T assay: an increase in Thioflavin T fluorescence is detected over time due to the formation of increasing amounts of amyloid to which the dye can specifically bind.
(§3) FIGS. 2(a) and 2(b) show the in vitro inhibition of p63 and p73 aggregation by several inhibitors. The aggregation is monitored via Thioflavin T assay. […] The baseline of no inhibitor is the line with squares.
The peptides are tested for p63 binding and p73 binding in an in vitro Thiofiavin T aggregation assay. […] The addition of the 50 μM solutions of p63 and p73 peptides to the reaction Buffer described in Example 3, forms amyloid (FIG. 1(a) and FIG. 1(b)). An increase in Thioflavin T fluorescence is detected over time due to the formation of increasing amounts of amyloid to which the dye can specifically bind. […] For the Nat1 Stock Solution, Nat1 (LTIITLE (SEQ ID NO: 225), >95% Pure, TFA salt) is dissolved at 8 mM in 25 mM NaOH solution and kept at −80° C. Prior to the assay, it is diluted to 1 mM in H2O. […] ThT fluorescence is monitored at room temperature every minute for 2 hours with excitation and emission wavelengths of 440 and 485 nm, respectively. […]

Data set [3] concerns the target p73 [RPILIIITLE—SEQ ID NO: 227] (Homo sapiens, UniProt O15350). Kind of data set: Thioflavin T aggregation assay, p73 amyloidogenic region. The data set is classed as biochemical. Also noted: dose or concentration left out as unconfirmed. Particulars: inhibitors added in solution; FIG. 2(b).
Excerpt: as §2, §3
as §1, with “An” for “The peptides of the invention were tested in an in vitro Thiofiavin T aggregation assay [see WO2014/182961]. An”, “Solution, Nat1” for “Solution, Nat”, “curves. […]” for “curves. 10 μL of dissolved peptide or H2O (control) is added to each reaction well. 10 μL of 1 mM Nat1 peptide is added to each reaction well (a final concentration of 50 μM).”, “respectively. […]” for “respectively. IC50 values are calculated using Graphpad Prism.”

Another data set can be described thus: Stability in human serum. The data set is classed as in vitro ADME. Particulars: CPP linked peptides, read-out: Stability in Human Serum (t1/2).
The next data set deals with Detroit-562. The format is cell-based. Particulars: 24 h. On the procedure:
(§4) To render the inhibitors cell permeable, the peptides are fused to either a nine-residue poly L-Arg tag or a nine-residue poly D-Arg tag, through one of several three-residue linkers, either L-RPI, D-RPI, or D-GGG. Cancer cell lines, e.g. OVCAR-3, and Detroit 562 are treated with the peptide conjugates for 24 hours by the following method. OVCAR3 and Detroit-562 cells are grown in ATCC recommended growth media. The peptides were made in a 4 mM stock. Cells are plated in 96-well flat bottom clear plates at 7000 cells/well. After 24 hours, compounds are serially diluted in one-third [starting at 33 μM] or one-half [starting at 30 μM] dilutions in PrEGM media (Lonza). Growth media was removed from the wells and compound in PrEGM was added to 100 ul final volume. 24 hours post-compound addition cell metabolism was measured by addition of 20 μl MTS solution (Promega, cell-titer 96 aqueous). Absorbance was read at 490 nm following a 2 hour incubation and data was processed in Prism Graphpad to generate EC50 values.

A further data set concerns OVCAR3. The format is cell-based. Particulars: 24 h. On the procedure:
as §4

A short description of data set [4]: Protein binding in human serum. The data set is classed as in vitro ADME. Particulars: CPP linked peptides.

Read-outs that look alike come from different tables or passages of the source. Non-standard residues stand in square brackets, D forms with d. Residues, ends and D or L forms follow the SMILES beside them. No end group written: not given here. NMeI = CC[C@H](C)[C@H](NC)C(=O)O

The IC50 is the concentration that inhibits the measured activity by half. By EC50 is commonly meant the concentration that produces a half-maximal response. The fraction unbound is free concentration divided by total concentration.

In turn, `CC[C@H](C)[C@@H](C(=O)N[C@@H](CCCCN)C(=O)N[C@@H](Cc1ccc(O)cc1)C(=O)N[C@@H](Cc1c[nH]cn1)C(=O)N[C@@H](CCCNC(=N)N)C(=O)O)N(C)C(=O)[C@H](CCCNC(=N)N)NC(=O)[C@@H](N)CC(C)C` [LR(N-Me)IKYHR] (H-LR[NMeI]KYHR-OH; N-terminus and C-terminus assumed) returned an IC50 in data set [1] of 0.334 µM.

For `N=C(N)NCCC[C@@H](N)C(=O)N[C@H](Cc1ccccc1)C(=O)N[C@H](Cc1ccc(O)cc1)C(=O)N[C@H](Cc1ccc(O)cc1)C(=O)N[C@H](Cc1c[nH]cn1)C(=O)N[C@H](CCCNC(=N)N)C(=O)N[C@H](CCCNC(=N)N)C(=O)O` [rfyyhrr] (H-[dR][dF][dY][dY][dH][dR][dR]-OH; N-terminus and C-terminus assumed), the “in vitro inhibition of p63 aggregation” value in data set [2] was “delay the aggregation onset and lower the total amount of aggregates present”. In data set [3], the “in vitro inhibition of p73 aggregation” value was “delay the aggregation onset and lower the total amount of aggregates present”.

Regarding `CC[C@@H](C)[C@@H](NC(=O)[C@H]1CCCN1C(=O)[C@@H](CCCNC(=N)N)NC(=O)[C@@H](CCCNC(=N)N)NC(=O)[C@@H](CCCNC(=N)N)NC(=O)[C@@H](CCCNC(=N)N)NC(=O)[C@@H](CCCNC(=N)N)NC(=O)[C@@H](CCCNC(=N)N)NC(=O)[C@@H](CCCNC(=N)N)NC(=O)[C@@H](CCCNC(=N)N)NC(=O)[C@@H](CCCNC(=N)N)NC(=O)[C@H](N)CCCNC(=N)N)C(=O)N[C@H](CCCNC(=N)N)C(=O)N[C@@H](C(=O)N[C@H](Cc1c[nH]cn1)C(=O)N[C@H](Cc1ccc(O)cc1)C(=O)N[C@H](Cc1ccccc1)C(=O)N[C@H](CCCNC(=N)N)C(=O)N[C@H](CCCNC(=N)N)C(=O)O)[C@H](C)CC` [rrrrrrrrrrpirihyfrr] (H-[dR][dR][dR][dR][dR][dR][dR][dR][dR][dR][dP][dI][dR][dI][dH][dY][dF][dR][dR]-OH; N-terminus and C-terminus assumed), the half-life in the data set “Stability in human serum” (cells given in hr) was more than 24 h. The EC50 was determined as 5 µM in the data set with Detroit-562 and 4 µM in the data set with OVCAR3. In data set [4], this compound gave a fraction unbound of 0.07.

With `CC[C@@H](C)[C@@H](NC(=O)[C@H]1CCCN1C(=O)[C@@H](CCCNC(=N)N)NC(=O)[C@@H](CCCNC(=N)N)NC(=O)[C@@H](CCCNC(=N)N)NC(=O)[C@@H](CCCNC(=N)N)NC(=O)[C@@H](CCCNC(=N)N)NC(=O)[C@@H](CCCNC(=N)N)NC(=O)[C@@H](CCCNC(=N)N)NC(=O)[C@@H](CCCNC(=N)N)NC(=O)[C@@H](CCCNC(=N)N)NC(=O)[C@H](N)CCCNC(=N)N)C(=O)N[C@H](Cc1ccc(O)cc1)C(=O)N[C@H](CCC(N)=O)C(=O)N[C@H](Cc1c[nH]c2ccccc12)C(=O)N[C@H](Cc1ccc(O)cc1)C(=O)N[C@H](CCCNC(=N)N)C(=O)N[C@H](Cc1c[nH]c2ccccc12)C(=O)N[C@H](CCC(N)=O)C(=O)O` [rrrrrrrrrrpiyqwyrwq] (H-[dR][dR][dR][dR][dR][dR][dR][dR][dR][dR][dP][dI][dY][dQ][dW][dY][dR][dW][dQ]-OH), in “Stability in human serum” (cells given in hr), the half-life was more than 24 h. Further, the results for the concentration for a half-maximal effect (EC50) with Detroit-562 and in the data set with OVCAR3 were 5 µM and 6 µM, respectively. In data set [4], this compound registered a fraction unbound of 0.01.

For Ac-IRIRRYR-NH2 [Ac-IRIRRYR-NH2], in data set [1], 0.069 µM corresponded to half-maximal inhibition (IC50).

As to LLIKYHR [LLIKYHR], in data set [2], the “in vitro inhibition of p63 aggregation” value was “delay the aggregation onset and lower the total amount of aggregates present”. In addition, the “in vitro inhibition of p73 aggregation” value in data set [3] was “delay the aggregation onset and lower the total amount of aggregates present”.

For PRRRRRRRRRRPIIRIRHYRP, the half-life in the data set “Stability in human serum” worked out at 1.93 h. Further, the EC50 stood at 12 µM in the data set on Detroit-562 and 10 µM in the data set with OVCAR3. In addition, the fraction unbound in data set [4] was 0.11.

As for PRRRRRRRRRRPILRIRYWKP, the half-life in “Stability in human serum” was found to be 3.33 h. Besides, the EC50 in the data set on Detroit-562 and with OVCAR3 was 5 µM in each case. The compound further gave a fraction unbound in data set [4] of 0.02.

Turning to PRRRRRRRRRRPITRIRFYRP, the half-life in the data set “Stability in human serum” turned out to be 1.72 h. In addition, the EC50 in the data set on Detroit-562 is 9 µM; in the data set on OVCAR3 it was 8 µM. In data set [4], this compound had a fraction unbound of 0.11.

With “RRRRRRRRRRPIIRIRHYP [RRRRRRRRRRPIIRIRHYP]”, in “Stability in human serum”, the half-life was 4.92 h. The figures for the EC50 in the data set with Detroit-562 and with OVCAR3 were 7 µM and 6 µM, respectively. For the same compound, the fraction unbound in data set [4] is 0.17.

Consider “RRRRRRRRRRPIIRIRHYR [RRRRRRRRRRPIIRIRHYR]”, for which the half-life in “Stability in human serum” stood at 0.5 h. For the same compound, the EC50 in the data set on Detroit-562 and with OVCAR3 was 6 µM each time. Besides, in data set [4], the fraction unbound was 0.16.

As for RRRRRRRRRRPIIRIRHYRP, the half-life in “Stability in human serum” was 2.07 h. For the same compound, the EC50 in the data set with Detroit-562 and in the data set with OVCAR3 was 7 µM throughout. The fraction unbound in data set [4] is 0.19.

For “RRRRRRRRRRPILTRITLE [RRRRRRRRRRPILTRITLE, reference compound]”, the half-life in “Stability in human serum” was 5.65 h. Further, the EC50 came to 9 µM with Detroit-562 and 8 µM in the data set on OVCAR3. The fraction unbound in data set [4] was 0.34.
